# Reference: patent US7033593B2, “Immunogen comprising an HIV envelope protein, a ligand and H2 peptide” (priority 2000, dated 2006)
# “Also recorded” adds a separate entry of the source. Where two headings read alike, the source gives them in different places.
# Experiments:
# [1] = target: HIV-1 89.6 gp120 (Human immunodeficiency virus type 1 group M subtype B, UniProt Q73372); type: binding; conditions: absence of sCD4 or mAb A32, blot 29A lanes 3 and 4
# [2] = target: T8-gp120 (HIV 89.6 gp120) (Human immunodeficiency virus type 1 group M subtype B, UniProt Q73372); type: binding; conditions: SPR
# T8-gp120 (HIV 89.6 gp120), sequence (Q73372 32-508): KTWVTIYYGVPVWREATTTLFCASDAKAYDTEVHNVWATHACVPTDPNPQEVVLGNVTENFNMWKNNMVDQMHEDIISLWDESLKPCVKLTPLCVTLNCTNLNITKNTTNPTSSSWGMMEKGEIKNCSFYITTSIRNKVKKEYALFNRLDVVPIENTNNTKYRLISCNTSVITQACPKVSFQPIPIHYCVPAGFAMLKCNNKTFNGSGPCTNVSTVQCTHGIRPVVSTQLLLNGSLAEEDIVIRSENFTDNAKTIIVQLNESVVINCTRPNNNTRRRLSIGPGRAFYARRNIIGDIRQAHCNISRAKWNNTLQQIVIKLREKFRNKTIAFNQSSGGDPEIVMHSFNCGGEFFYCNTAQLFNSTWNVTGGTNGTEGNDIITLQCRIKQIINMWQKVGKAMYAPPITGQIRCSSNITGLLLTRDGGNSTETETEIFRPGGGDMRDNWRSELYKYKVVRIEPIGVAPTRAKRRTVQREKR
# [3] = target: HIV-1 Env 89.6 gp120 (Human immunodeficiency virus type 1 group M subtype B, UniProt Q73372); assay: biochemical; type: binding, HIV-1 89.6
# HIV-1 Env 89.6 gp120, sequence (Q73372 32-508): as above
# [4] = target: HIV 89.6 gp140 (Human immunodeficiency virus type 1 group M subtype B, UniProt Q73372); type: binding; conditions: biotinylated peptide
# HIV 89.6 gp140, sequence (Q73372 32-681): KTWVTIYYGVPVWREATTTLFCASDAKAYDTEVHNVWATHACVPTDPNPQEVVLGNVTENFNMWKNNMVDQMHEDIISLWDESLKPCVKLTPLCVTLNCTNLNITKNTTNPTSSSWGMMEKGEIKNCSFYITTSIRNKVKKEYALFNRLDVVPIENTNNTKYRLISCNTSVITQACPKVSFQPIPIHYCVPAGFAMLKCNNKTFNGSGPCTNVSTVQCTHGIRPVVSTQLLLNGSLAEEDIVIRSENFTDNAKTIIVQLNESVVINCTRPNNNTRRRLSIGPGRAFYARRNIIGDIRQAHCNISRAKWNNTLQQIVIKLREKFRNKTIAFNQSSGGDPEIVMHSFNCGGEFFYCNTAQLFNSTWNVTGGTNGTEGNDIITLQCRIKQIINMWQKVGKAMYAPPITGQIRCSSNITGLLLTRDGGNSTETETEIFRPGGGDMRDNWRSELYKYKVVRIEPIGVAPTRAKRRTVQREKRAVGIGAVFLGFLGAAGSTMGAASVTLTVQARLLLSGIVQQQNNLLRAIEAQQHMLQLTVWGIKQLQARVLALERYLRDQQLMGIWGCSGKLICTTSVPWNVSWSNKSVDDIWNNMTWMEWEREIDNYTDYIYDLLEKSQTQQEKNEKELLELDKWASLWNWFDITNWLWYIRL
# [5] = tested on: sCD4-gp140 (HIV 89.6 gp140); assay: SPR binding of HR-2 peptides to sCD4-gp140 complex
# Experimental: SPR biosensor measurements were determined on a BIACORE 3000 (BIACORE Inc., Uppsala, Sweden) instrument. […] Binding of proteins and peptides was monitored in real-time at 25° C. and with a continuous flow of PBS, pH 7.4 at […]. Analyte (proteins and peptides) were removed and the sensor surfaces were regenerated following each cycle of binding by single or duplicate […] of regeneration solution (10 mM glycine-HCl, pH 2.5 or 10 mM NaOH).
# All analyses were performed using the non-linear fit method of O'Shannessy et al. (O'Shannessy et al, Anal. Biochem. 205:132–136 (1992)) and the BIAevaluation 3.0 software (BIACORE Inc). Rate and equilibrium constants were derived from curve fitting to the Langmuir equation for a simple bimolecular interaction (A+B=AB).
# (§1) A blank chip served as an in-line reference surface for subtraction of non-specific binding and bulk responses.
# (§2) Surface Plasmon Resonance Biosensor Measurements. SPR biosensor measurements were determined on a BIACORE 3000 (BIACORE Inc., Uppsala, Sweden) instrument. […] A blank in-line reference surface (activated and de-activated for amine coupling) was used to subtract non-specific or bulk responses. Binding of proteins and peptides (biotinylated or free DP178, T649Q26L, DP178-scrambled) was monitored in real-time at 25° C. with a continuous flow of PBS (150 mM NaCl, 0.005% surfactant p20), pH 7.4 at 10–30 μl/min. Analyte (proteins and peptides) were removed and the sensor surfaces were regenerated following each cycle of binding by single or duplicate 5–10 μl pulses of regeneration solution (10 mM glycine-HCl, pH 2.5 or 10 mM NaOH).
# [6] = tested on: T8-gp140 (HIV 89.6 gp140); conditions: SPR
# Experimental: FIG. 14A. […] FIGS. 14B and 14C. […] After stabilization of gp140 capture, either the 19b (anti-gp120 V3) or 2F5 (anti-gp41) antibodies (300 μg/ml) were injected to assess the relative amounts of gp120 and gp41 on both surfaces. FIGS. 14D–14F.
# as §1, §2
# [7] = tested on: BaL gp120; assay: BIACORE capture assay: peptide binding to BaL gp120; parameters: species or system HIV-1 BaL; conditions: CCR5-utilizing isolate
# Experimental: Rectangular bars represent the surface of the sensor chip on which sCD4 or mAbs A32 or T8 were covalently immobilized. Soluble gp120 proteins were first captured on each of these surfaces and then DP178 or sDP178 peptides were injected and their binding interactions were monitored. […] Based on their molecular size (1:27), 2000 RU of immobilized gp120 would bind 74 RU of DP178 peptide. […] Arrows point to start of injection of gp120 and DP178. […] In FIG. 27C, specific binding signal (solid) is shown after subtraction of non-specific signal (broken line). […] 50 μg/ml of DP178 peptide was flowed at 30 μl/min over each of these surfaces after 2000 RU of 89.6 gp120 was bound (FIG. 27D). In FIG. 27E, these same surfaces were also used to monitor binding of scrDP178 (50 μg/ml). […] (FIG. 27F) Binding of DP178 and DP107 peptides to A32-gp120 complex. […] Data are a representative experiment of 3 performed. […] 50 μg/ml of DP178 peptide was flowed at 30 μl/min over each of these surfaces after RU of BaL gp120 was bound (FIG. 27G). These same surfaces were also used to monitor binding of scrDP178 (50 μg/ml) (FIG. 27H).
# Surface Plasmon Resonance Biosensor Measurements.
# [8] = target: cleaved HIV 89.6 gp140 (Human immunodeficiency virus type 1 group M subtype B, UniProt Q73372); type: binding; conditions: no sCD4
# cleaved HIV 89.6 gp140, sequence (Q73372 32-681): as above
# [9] = target: 89.6 gp120 (Human immunodeficiency virus type 1 group M subtype B, UniProt Q73372); type: binding, HIV-1 89.6
# 89.6 gp120, sequence (Q73372 32-508): as the sequence (Q73372 32-508) above
# From the text: Biotinylated DP178 (FIG. 28A), scrDP178 (FIG. 28B) and scrDP107 (not shown) were attached to a SA-sensor chip through biotin-streptavidin interactions. 200–300 RU of each peptide was attached to individual flow cells of the SA chip. The scrDP107 surface was used as in-line reference subtraction of non-specific and bulk effect. All data shown here were derived after subtraction of signals from this reference surface. […] Data are a representative experiment of 3 performed.
# The scrDP107 surface was used as a reference surface for subtracting bulk and non-specific binding. […] Soluble gp120 proteins, mabs or gp120 proteins pre-incubated with mabs were then injected at 20 μl/min for 2–3 min over each of the peptide-SA surface. Binding data was acquired following in-line reference subtraction of binding from the scrDP107 (HR-1) surface.
# In these experiments (the “SA-chip assay”), biotinylated HR-2 peptides DP178 and scrDP178 were immobilized on adjacent flow cells of a streptavidin sensor chip (SA chip). […] The non-specific and bulk effect was measured over scrDP107 surface and this surface was used for automated in-line reference subtraction.
# [10] = A32-induced gp120, two-component dissociation
# HIV-1 89.6 gp120, sequence (Q73372 32-508): as above
substance,measurement,setting,value
enfuvirtide,band density of precipitated gp120,[1],1.0 ODunits/mm^2
same,binding to gp120 on T8 mab surface (in words),[2],neither HR-2 peptide bound
same,Kd,[3],820 nM
same,faster component of the dissociation phase,[3]; biphasic binding,0.023 s⁻¹
same,slower component of the dissociation phase,"[3]; biphasic binding, predominant",0.001 s⁻¹
same,binding to gp120 bound to CD4 or A32 (in words),[3]; peptide 50 μg/ml,specific induction of DP178 binding; also recorded: Marked induction
same,binding to gp120 bound to mAb T8 (in words),[3]; peptide 50 μg/ml,no differences were observed
same,immunoprecipitation of gp41 and gp140 (in words),[4],constitutively immunoprecipitated
same,binding to sCD4-gp140 surface (in words),[5]; SPR,much higher binding; also recorded: bound specifically
same,Kd,"[5]; Scatchard plot, read-out: Keq (equilibrium binding constant)",1700 nM
same,kd (off-rate),[5]; cleaved gp140 after sCD4,0.0056 s⁻¹
same,Kd,"[5]; sCD4-gp140 complexes, without CCR5-D1, read-out: Kd",700 nM
same,Keq stronger than for recombinant gp41,[5]; sCD4-gp140 vs gp41,10 fold
same,Rm (maximal binding at equilibrium),[5]; with sCD4,320 RU
same,increase of Rm by soluble CD4,[5]; with vs without sCD4,~10 fold
same,binding to T8-gp140 surface (in words),[6],near background binding
same,"binding to BaL gp120 complexed with A32, CD4 or T8 (in words)",[7],neither DP178 nor scrDP178 bound
same,Rm (maximal binding at equilibrium),[8],35 RU
same,binding to cleaved gp140 (in words),[8],Low level binding
same,binding higher than expected due to mass effect only,[9]; +A32,3 fold
same,faster off-rate,[9]; [10],0.020 s⁻¹
same,slower off-rate,[9]; [10],0.0016 s⁻¹
same,binding signal of A32-gp120 over peptide surface,[9]; gp120 pre-incubated with A32 (+A32),~400 RU
